According to patent publication US20250127805A1, “ALCOHOLIC FORMULATION WITH A MIXTURE OF ALKALOIDS, PRENOL LIPIDS AND FLAVONOIDS” (PONTIFICIA UNIVERSIDAD JAVERIANA, priority 2023, published 2025):

Test system: cancer cell line type 3 model
Test: Circulating blasts, tumor development and survival in type 3 model
Type: in vivo
Conditions: type 3 cancer cell line
Text: FIG. 12. Frequency circulating blasts in cancer cell line type 3 model.

For `COc1cccc2c1C(=O)c1c(O)c3c(c(O)c1C2=O)C[C@@](O)(C(=O)CO)C[C@@H]3O[C@H]1C[C@H](N)[C@H](O)[C@H](C)O1` [doxorubicin], the tumor development was “decrease in tumor development”.
